From article PMC6332026, “Synthesis and Pharmacochemistry of New Pleiotropic Pyrrolyl Derivatives” (Molecules, 2015)
Marks after values point to notes of the source that are not given here.

Tests used:
[1] = Lipophilicity as RM values by reverse-phase thin layer chromatography (RPTLC); assay type: physicochemical; conditions: methanol/water 75/25 v/v with ammonia drops
From the text: Since lipophilicity is a significant physicochemical property determining the absorption, distribution, metabolism and excretion properties (ADME) of drugs, we attempted to determine experimentally the lipophilicity as RM values with reverse-phase thin layer chromatography (RPTLC). Lipophilicity was also theoretically calculated as Clog P values. According to the calculated Clog P values, the most lipophilic compounds were 2iii (6.37) and 2v (6.04). However, this observation was not supported by the RM values, since Compound 2iii presented very low lipophilicity (−0.061). Furthermore, the lipophilicity of Compound 2v could not be determined experimentally under the reported conditions. Attempts to correlate Clog P and RM values failed. From our results (Table 2), it can be concluded that RM values could not be used as a successful relative measure of the overall lipophilic/hydrophilic properties of these molecules. Tentatively, this can be attributed to the different nature of the hydrophilic and lipophilic phases in the two systems. Clog P refers to n-octanol/water, whereas RM in this case refers to methanol/water. Moreover, it is likely that pyrrole derivatives form hydrogen bonds within the hydrophilic phase.
Reverse-phase thin layer chromatography (RPTLC) was used for the determination of RM values. Silica gel plates were saturated with 5% v/v liquid paraffin in petroleum ether, and the mobile phase was methanol/water (75/25 v/v) with the addition of ammonia drops. Spots were detected under UV light. RM values were determined by the corresponding Rf values (from five measurements for each compound) using the equation [43]: RM = log[(1/Rf) − 1](1)

[2] = Superoxide radical scavenging activity (non-enzymatic, PMS/NADH, NBT method); conditions: 100 μM
From the text: Superoxide anion radical is an active form of oxygen, and it is the product of the one-electron reduction of […] oxygen. Herein, superoxide radicals were formed by mixing phenazine methosulfate (PMS) with NADH and air-oxygen. The production of radicals was estimated with the nitroblue-tetrazolium method (NBT). From the tested pyrroles, Compounds 2i and 2iii were equipotent (57%) scavengers. […] In contrast, the dipole moment appeared to be important. The values of the dipole, as calculated by the program Spartan v.5.1.3.
The superoxide anion radicals were produced non-enzymatically by mixing phenazine methosulfate (PMS) with NADH and air-oxygen. The production of superoxide radicals was estimated with the nitroblue-tetrazolium (NBT) method with 3 μΜ PMS, 78 μΜ NADH and 25 μΜ NBT in 19 μΜ phosphate buffer pH 7.4. The absorbance was measured at 560 nm at room temperature. The tested compounds were added in the mixture 2 min before the addition of NADH [52].

[3] = Inhibition of heme-dependent lipid peroxidation of linoleic acid (TBA method); conditions: pH 7.4, 37 °C
Description: The anti-lipid peroxidation activity was determined through the inhibition of heme-dependent lipid peroxidation. The peroxidation of sodium linoleate is induced from a mixture of heme and hydrogen peroxide, which produces free radicals from the side chains of amino acids. The assay is performed at pH 7.4 with a phosphate buffer, and the products of peroxidation are identified with the thiobarbituric acid method (TBA). In particular, malonic dialdehyde, a final product of lipid peroxidation, reacts with TBA and forms a colored product, whose absorbance is measured at 535 nm. […] Compounds 2ii and 2vi with low Clog P values are weak inhibitors of lipid peroxidation. It seems that the increase of volume of Ar^1, measured as molar refractivity MR (Ar^1), enhances IC50 values and reduces the inhibitory activity (2i and 2iii; and 2ii, 2iv and 2vi). For derivatives 2iv and 2v, the presence of an electron-acceptor, e.g., a chloro-substituent on the phenyl ring (Ar^2), diminishes the anti-lipid peroxidation activity.
Firstly, 0.4 mL of heme (50 μΜ), 0.25 mL of sodium linoleate (400 μΜ), 0.1 mL of the solutions of the tested compounds (concentrations varying from 10–100 μΜ in DMSO) and 0.25 mL of H2O2 (500 μΜ) were incubated for 10 min in 37 °C in a phosphate buffer (KH2PO4–KOH 50 mM, pH 7.4). The peroxidation products were identified with the reaction of thiobarbituric acid, by adding successively 0.5 mL of 40% trichloroacetic acid (TCA) and 0.5 mL of 2% of thiobarbituric acid (TBA). The addition was followed by stirring and heating at 90 °C for 20 min, and then, 1 mL of acetic acid and 1 mL of chloroform were added and the absorbance measured at 535 nm. IC50 values were determined.

COX-2 = biological target: T1, COX-2 (Homo sapiens, UniProt P35354); experiment: Inhibition of cycloxygenase-2 (colorimetric TMPD assay)
T1 sequence (P35354 18-604): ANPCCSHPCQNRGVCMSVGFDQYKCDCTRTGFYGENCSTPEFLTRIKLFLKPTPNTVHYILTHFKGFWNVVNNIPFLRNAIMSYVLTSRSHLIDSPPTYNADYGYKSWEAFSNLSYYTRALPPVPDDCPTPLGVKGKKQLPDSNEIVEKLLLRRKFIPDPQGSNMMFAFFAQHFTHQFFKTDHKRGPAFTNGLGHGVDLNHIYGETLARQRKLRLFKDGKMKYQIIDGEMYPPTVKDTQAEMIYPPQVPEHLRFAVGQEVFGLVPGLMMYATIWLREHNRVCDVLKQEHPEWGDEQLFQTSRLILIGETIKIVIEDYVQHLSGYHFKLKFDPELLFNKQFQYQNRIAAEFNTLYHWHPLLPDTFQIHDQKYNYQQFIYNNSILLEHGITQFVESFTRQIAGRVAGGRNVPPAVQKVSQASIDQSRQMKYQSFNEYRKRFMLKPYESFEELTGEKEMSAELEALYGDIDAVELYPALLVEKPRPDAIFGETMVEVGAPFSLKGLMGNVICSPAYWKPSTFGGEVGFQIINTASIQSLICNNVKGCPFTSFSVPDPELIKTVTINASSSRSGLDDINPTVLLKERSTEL
Description: The inhibition of COX-2, as a peroxidase, was determined by a colorimetric assay with the oxidation of N,N,N′,N′-tetramethyl-p-phenylenediamine (TMPD).
COX-2 inhibitory activity was determined by using arachidonic acid (AA) as a substrate in buffer (0.1 M Tris pH 8.5) and TMPD as a co-substrate.

[4] = system: carrageenan-induced rat paw edema; experiment: Inhibition of rat paw edema induced by carrageenan; assay type: in vivo, Fischer 344 rats; conditions: 0.01 mmol/kg body weight, intraperitoneally, 3.5 h; for inhibition in vivo at 10 µmol/kg: Rattus norvegicus, ip, read-out: CPE % inhibition of rat paw edema induced by carrageenan
Description: The pyrrolyl derivatives, as well as their precursor chalcones were tested in vivo for the inhibition of rat paw edema induced by carrageenan. […] […]. For Compounds 2i, 2iii, 2iv and 2v, we determined their ED50 values. […]. The finding supports the primary idea of this design.
Edema was induced in the right hind paw of Fischer 344 rats (150–200 g). In the study, both males and females were included, with the exemption of pregnant females. The animals, which have been bred in our laboratory, were housed under standard conditions and received a diet of commercial food pellets and water ad libitum during maintenance. One hour before the onset of the experiment, food and water were removed. The tested compounds (dose 0.01 mmol/kg body weight) were diluted in water with a few drops of Tween 80, and they were administered intraperitoneally simultaneously with the intradermal injection of 0.1 mL 2% of carrageenan in water. The animals were euthanatized 3.5 h after the carrageenan administration. The difference between the weight of injected and uninjected paws was calculated for each animal and was compared to control animals, which were treated with water. Indomethacin was used as a reference compound in 0.01 mmol/kg. The results were expressed as the percent inhibition of the edema (CPE %).

[5] = Interaction with the stable free radical DPPH (reducing activity); conditions: for RA % (interaction with DPPH): DPPH 50 μM; for interaction with DPPH: 10 μM compound
Description: 2,2-Diphenyl-1-picrylhydrazyl (DPPH) is a lipophilic, free, stable radical, which absorbs at 517 nm (violet color). Upon reduction, decolorization is observed that is stoichiometric to the number of received electrons and is representative of the antioxidant ability of compounds. […] This interaction, which indicates their radical scavenging ability in an iron-free system, was measured at 100 and 1000 μM after 20 and 60 min, whereas the final concentration of DPPH was stable at 50 μΜ.
[…] The absorbance was measured at 517 nm after 20 and 60 min at room temperature.

interleukin-6 (IL-6) = biological target: T2, interleukin-6 (IL-6) (Mus musculus, UniProt P08505); experiment: Inhibition of interleukin-6 (immunometric double antibody sandwich EIA); assay type: biochemical; conditions: compound 10 μM; IL-6 1500 pg/mL
T2 construct: purchased Cayman Item No. 583371
T2 sequence (P08505 25-211): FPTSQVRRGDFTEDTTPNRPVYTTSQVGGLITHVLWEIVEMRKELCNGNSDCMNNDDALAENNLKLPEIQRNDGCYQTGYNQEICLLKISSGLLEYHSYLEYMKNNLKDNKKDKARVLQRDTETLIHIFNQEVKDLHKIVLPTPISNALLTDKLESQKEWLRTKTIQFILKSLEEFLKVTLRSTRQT
Description: The assay used for the inhibition of IL-6 is based on an immunometric double antibody method (sandwich technique). […] Both compounds gave satisfactory biological responses, both in high and in low concentrations of IL-6 (Table 8).
The method was based on an immunometric double antibody sandwich technique. Each well of the microwell plate was coated with a specific for mouse IL-6 rat monoclonal antibody. Tested compounds at 10 μΜ and standards were incubated in the wells, and after rinsing, a second monoclonal antibody was added, which was conjugated with biotin and detected the captured IL-6. The recognition of double antibody sandwiches was done with HRP-conjugated streptavidin. The concentration of IL-6 was determined by measuring the enzymatic activity of HRP using the chromogenic substrate TMB (3,3′,5,5′-tetramethylbenzidine). The absorbance of the reaction product was measured at 450 nm, and the intensity of the color was directly proportional to the amount of bound HRP-streptavidin conjugate, which was proportional to the concentration of IL-6.

SMILES: O=C(c1ccccc1)c1c[nH]cc1-c1ccc2[nH]ccc2c1 [Compound 2vi, [4-(1H-Indol-5-yl)-1H-pyrrol-3-yl](phenyl)methanone]
- RM [1]: −0.685
- O2^•− % superoxide radical scavenging activity [2]: 86%
- LP IC50 (inhibition of heme-dependent lipid peroxidation of linoleic acid) [3]: inactive
- melting point: 247 to 248 °C
- COX-2 % inhibition (COX-2; 100 μM): inactive

SMILES: O=C(C=Cc1cccc2ccccc12)c1ccc(Cl)cc1 [Compound 1v, 3-(Naphth-1-yl)-1-(4-chloro)phenylprop-2-en-1-one]
- CPE % inhibition of rat paw edema induced by carrageenan [4]: 44 ^d %

SMILES: CC(Cc1ccc(O)c(O)c1)C(C)Cc1ccc(O)c(O)c1 (stereo not drawn) [NDGA, nordihydroguaiaretic acid, reference compound]
- RA % (interaction with DPPH) ([5]; 100 μM compound, 20 min): 81%
- RA % (interaction with DPPH) ([5]; 100 μM compound, 60 min): 83%
- RA % (interaction with DPPH) ([5]; 1000 μM compound, 20 min): 96%
- RA % (interaction with DPPH) ([5]; 1000 μM compound, 60 min): 96%

SMILES: CN(C)c1ccc(/C=C/c2c[nH]cc2C(=O)c2ccccc2)cc1 [Compound 2ii, (E)-{4-[4-(Dimethylamino)styryl]-1H-pyrrol-3-yl}(phenyl)methanone]
- RM [1]: 0.073
- interaction with DPPH ([5]; 20 min): 35%
- interaction with DPPH ([5]; 60 min): 40%
- RA % (interaction with DPPH) ([5]; 100 μM compound, 20 min): 86%
- RA % (interaction with DPPH) ([5]; 100 μM compound, 60 min): 88%
- RA % (interaction with DPPH) ([5]; 1000 μM compound, 20 min): 99%
- RA % (interaction with DPPH) ([5]; 1000 μM compound, 60 min): 96%
- LP IC50 (inhibition of heme-dependent lipid peroxidation of linoleic acid) [3]: inactive
- inhibition in vivo at 10 µmol/kg [4]: 89%
- melting point: 219 to 220 °C
- inhibition at 100 µM (COX-2; read-out: COX-2 % inhibition): 47%

SMILES: O=C(C=Cc1ccc2[nH]ccc2c1)c1ccccc1 [Compound 1vi, 3-(1H-Indol-5-yl)-1-phenylprop-2-en-1-one]
- inhibition in vivo at 10 µmol/kg [4]: 42%

SMILES: O=C(C=Cc1cccc(Oc2ccccc2)c1)c1cccs1 [Compound 1i, 3-(3-Phenoxyphenyl)-1-(thien-2-yl)prop-2-en-1-one]
- RA % (interaction with DPPH) ([5]; 100 μM compound, 20 min): 43%
- RA % (interaction with DPPH) ([5]; 100 μM compound, 60 min): 2%
- RA % (interaction with DPPH) ([5]; 1000 μM compound, 20 min): 5%
- inhibition in vivo at 10 µmol/kg [4]: 41%
- melting point: 48 to 50 °C

SMILES: O=C(C=Cc1ccc(OCc2ccc(Br)cc2)cc1)c1cccs1 [Compound 1iii, 3-{4-[(4-Bromobenzyl)oxy]phenyl}-1-(thien-2-yl)prop-2-en-1-one]
- inhibition in vivo at 10 µmol/kg [4]: 86%
- melting point: 141 to 143 °C

SMILES: CN(C)c1ccc(C=CC=CC(=O)c2ccccc2)cc1 [Compound 1ii, 5-[4-(Dimethylamino)phenyl]-1-phenylpenta-2,4-dien-1-one]
- RA % (interaction with DPPH) ([5]; 100 μM compound, 20 min): 31%
- RA % (interaction with DPPH) ([5]; 100 μM compound, 60 min): 13%
- RA % (interaction with DPPH) ([5]; 1000 μM compound, 20 min): 38%
- RA % (interaction with DPPH) ([5]; 1000 μM compound, 60 min): 42%
- inhibition in vivo at 10 µmol/kg [4]: 69%

SMILES: COc1ccc2c(c1)c(CC(=O)O)c(C)n2C(=O)c1ccc(Cl)cc1 [Indomethacin, reference compound]
- inhibition at 10 µM (interleukin-6 (IL-6)): 100%
- inhibition in vivo at 10 µmol/kg [4]: 53%

SMILES: O=C(C=Cc1cccc2ccccc12)c1ccccc1 [Compound 1iv, 3-(Naphth-1-yl)-1-phenylprop-2-en-1-one]
- inhibition in vivo at 10 µmol/kg [4]: 40%

SMILES: O=C(O)/C=C/c1ccc(O)c(O)c1 [Caffeic acid, reference compound]
- O2^•− % superoxide radical scavenging activity [2]: 86.1%
- IC50 ([3]; read-out: LP IC50 (inhibition of heme-dependent lipid peroxidation of linoleic acid)): 6 µM
